According to patent US20080293640A1, “Polypeptide inhibitors of HSP27 kinase and uses therefor” (Arizona Board of Regents, A body Corporate, of the State of …, priority 2007, published 2008):

Assays:
[1] = target: MAPKAPKII (Homo sapiens, UniProt P49137); assay: In vitro phosphorylation of recombinant HSP27 with […] (immunoblot); format: biochemical; settings: MAPKAPKII 50 ng, 30 min at 30° C.; ratio P-P27 to P27, percent phosphorylation vs no inhibitor; FIG. 1
Experimental: Recombinant HSP27 ([…]) was phosphorylated with no enzyme (control, lane 1), […] (50 ng) in the absence (lane 2) or presence of 200 μM ([…]) (SEQ ID NO: 44) obtained from Calbiochem, (lane 3), or BIP (HSP27 kinase inhibitor peptide, […] (SEQ ID NO: 45) (lane 4) or HSP20 phosphopeptide (PTD-P20, lane 4) for 30 min at 30° C. The reaction mixtures were inactivated and separated by SDS-PAGE and transferred to PVDF membrane. The blot was probed with antibodies against HSP27 and phospho-HSP27. The ratio of P-P27 to P27 was calculated and the percent phosphorylation was determined with respect to the phosphorylation obtained in the absence of inhibitor (lane 2). This blot is a representative of 2 separate experiments.

[2] = test system: human keloid fibroblasts; assay: TGF-β1 induced expression of CTGF and collagen in human keloid fibroblasts (immunoblot); format: cell-based
Excerpt: (§1) One important downstream signaling event in the TGFB signaling pathway is the activation of HSP27 kinase. We have designed a cell permeable inhibitor of this kinase (BIP) that effectively blocks its activity. In this study, we employ stable isotopic labeling by amino acids in cell culture (SILAC) as a means to quantitate the protein expression differences manifest during 1) TGF-β1 stimulation, 2) TGF-β1 stimulation in the presence of BIP, or 3) no treatment at all (control) in a keloid fibroblast cell line. Human keloid fibroblasts were grown to 80% confluence, and then serum-starved for 48 h. The cells were subsequently stimulated with nothing (control), with 1.25 ng/ml of transforming growth factor beta 1 (TGFβ) for 24 h, or 10 μM of a BIP for 2 h followed by TGFβ1 for 24 h (TGFβ+BIP). The expression of CTGF and collagen was assessed by immunoblot and normalized to b-actin expression. Phospho-HSP27 was expressed as a ratio to endogenous HSP27. Quantitative results represent average ±standard deviation from 3 independent experiments.
Human keloid fibroblasts were maintained in Dulbecco's modified Eagle's medium (DMEM) supplemented with fetal calf serum (10%) and streptomycin/penicillin (1%). They were grown to 80% confluence, and then serum-starved for 48 h. […] The expression of CTGF and collagen was assessed by immunoblot and normalized to GAPDH (loading control) expression. Results in the graphs (FIG. 3) represent average ±standard deviation from 3 independent experiments.
In a further example, BIP was used at lower concentrations (5 or 10 μM).

[3] = test system: human keloid fibroblasts; assay: TGF-β1 induced stress fiber formation in human keloid fibroblasts (phalloidin microscopy); format: cell-based; settings: 60 μM BIP for 2 h followed by TGF-β1 1.25 ng/ml for 24 h
Experimental: Human keloid fibroblasts were maintained in Dulbecco's modified Eagle's medium (DMEM) supplemented with fetal calf serum (10%) and streptomycin/penicillin (1%). They were grown on cover slips and then serum-starved for 48 h. […] Cells were washed, processed for microscopy and labelled with Alexa 586-conjugated phalloidin to reveal the actin cytoskeleton and DAPI to reveal nucleus, magnification 40×.

[4] = test system: human keloid fibroblasts; assay: TGF-β1 induced phosphorylation of HSP27 in human keloid fibroblasts (fluorescence microscopy); format: cell-based; settings: 60 μM BIP for 2 h followed by TGF-β1 1.25 ng/ml for 24 h
Experimental: Human keloid fibroblasts were maintained in Dulbecco's modified Eagle's medium (DMEM) supplemented with fetal calf serum (10%) and streptomycin/penicillin (1%). They were grown on cover slips and then serum-starved for 48 h. […] Cells were washed, processed for microscopy and labelled with Cy2 for phospho-HSP27 (ser 78/82, green fluorescence), Alexa 586-conjugated phalloidin (red) to reveal the actin cytoskeleton and DAPI (blue) to reveal nucleus, magnification 40×. Pre-treatment of cells with BIP followed by TGFb1 reduced phosphorylation of HSP27 in keloid fibroblasts.

[5] = test system: human keloid fibroblasts; assay: TGF-β1 induced phosphorylation of HSP27 in human keloid fibroblasts (immunoblot); format: cell-based
Excerpt: as §1
Human keloid fibroblasts were maintained in Dulbecco's modified Eagle's medium (DMEM) supplemented with fetal calf serum (10%) and streptomycin/penicillin (1%). They were grown to 80% confluence, and then serum-starved for 48 h. […] The phosphorylation of HSP27 was assessed by immunoblot analysis using antibodies as indicated. B, The ratio of P-P27 to P27 was calculated and the percent phosphorylation was determined with respect to the phosphorylation obtained with TGF b (lane 2).
In a separate example, lower concentrations of BIP (5 μM and 10 μM) were employed. […] TGF-β1-stimulated cells were treated with BIP (5 or 10 μM) for 24 h, and HSP27 and phospho-HSP27 levels were quantified relative to β-actin expression to correct for loading differences and normalized to untreated levels.

[6] = test system: human saphenous vein (HSV); assay: Sodium nitroprusside induced relaxation of human saphenous vein segments in a muscle bath; settings: pretreated 2 hrs with 25 μM SB203580 or 30 μM BIP; contracted with NE 0.5 μM; SNP 0-1 μM; n=3; FIG. 5
Experimental: Segments of human saphenous vein (HSV) were equilibrated in a muscle bath and pretreated with buffer (control), 25 μM SB203580 (SB) or 30 μM BIP for 2 hrs and then contracted with norepinephrine (NE, 0.5 μM) and relaxed with increasing doses of sodium nitroprusside (SNP, 0-1 μM).

[7] = test system: Human Aortic Endothelial Cells; assay: Endothelial cell proliferation (CyQuant NF Cell Proliferation Assay); format: cell-based; settings: 1, 10 or 50 μM BIP, 16 hours
Experimental: Human Aortic Endothelial Cells (Passage 2) (Cascade Biologics) were seeded into 96-well plates at a concentration of 2000 cells per well as determined using a hemocytometer and allowed to adhere for 4 hours. They were then treated with a final concentration of 1, 10 or 50 μM MK2 inhibitor peptide (BIP), 1, 10, or 50 μM scrambled peptide (SCR), or and equal volume of PBS. Cells were returned to the incubator for 16 hours and counted on a Molecular Devices M5 spectrophotometer after 1 hour treatment with CyQuant NF Cell Proliferation Assay (Invitrogen).

[8] = test system: Human saphenous vein rings; assay: Intimal thickening in human saphenous vein rings, 14 day organ culture; settings: BIP 5 or 10 μM, SB 20 μM; 14 days; FIG. 6
Experimental: Human saphenous vein rings were cultured in RPMI medium supplemented with L-glutamine (1%), penicillin/streptomycin (1%) and FBS (30%) at 5% CO2 and 37° C. for 14 days. The rings were either untreated (C) or treated with BIP (5 or 10 μM), SB (20 μM) or recombinant HSP27 protein (r-HSP27). * p<0.05 compared to the control (untreated) rings. After 14 days, the rings were fixed in formalin, embedded in paraffin, sectioned at 10 micrometer and stained using Weigert's Resorcin Fuchsin. The slides were analyzed by Zeiss microscope with 40× objective. The intimal thickness was measured using Zeiss and Adobe Photoshop software.

[9] = test system: Human saphenous vein rings; assay: CTGF expression and phosphorylation of HSP27 in saphenous vein organ culture model (western blot); settings: BIP 5 or 10 μM, SB 20 μM; 14 days; related to actin, untreated set to 1; FIG. 7
Experimental: The human saphenous vein rings were cultured in RPMI medium supplemented with L-glutamine (1%), penicillin/streptomycin (1%) and FBS (30%) at 5% CO2 and 37° C. for 14 days. The rings were either untreated (Control, C) or treated with BIP (5 or 10 μM) or SB (20 μM). Rings were frozen after 14 days and protein was extracted and separated by SDS-PAGE and analyzed by western blot using the antibodies as indicated. The data is shown in FIG. 7; Panel A is a representative blot, and Panels B and C show the data summary. The bands were quantified by densitometry, and CTGF, phosphorylated HSP27 or non-phosphorylated HSP27 expressions were related to actin expression to correct for loading differences. The expression of CTGF and HSP27 and phospho-HSP27 in untreated rings was set to 1 for comparison of different blots. Data expressed as mean ±standard deviation of 6 experiments (panel right). *: p<0.05 compared to the untreated rings (C).

[10] = test system: Rat aortic smooth muscle, A7R5 cells; assay: ARS or LPA induced phosphorylation of HSP27 in A7R5 cells (western blot); format: cell-based; settings: BIP 1, 5 or 10 μM or SB 20 μM for 2 h prior to ARS 500 μM or LPA 25 μM for 0.5 h; FIG. 8
Experimental: The cells were serum starved with DMEM medium supplemented with 1% BSA and 1% penicillin/streptomycin for 24 h. The phosphorylation of HSP27 was induced using arsenite (ARS, 500 μM) or lysophosphatidic acid (LPA, 25 μM) for 0.5 h. Cells were either untreated or pre-treated with BIP (1, 5 or 10 μM) or SB (20 μM) for 2 h prior to the stimulation with ARS or LPA. Cells were frozen after treatment and analyzed by SDS-PAGE and western blot. The data are shown in FIG. 8; Panels A and B are representative western blots, while Panels C and D provide the data. The bands were quantified by densitometry, and phosphorylated HSP27 or non-phosphorylated HSP27 expressions were related to actin expression to correct for loading differences. The ratio of phosphorylated HSP27/HSP27 (relative p-HSP27/HSP27) in untreated cells was set to 1 for comparison of different blots. Data expressed as mean ±standard deviation of 4 experiments. *: p<0.05 compared to the untreated cells (C).

[11] = test system: rat aortic smooth muscle (A7R5) cells; assay: LPA induced CTGF expression in A7R5 cells (western blot); format: cell-based; settings: BIP 10 or 20 μM or SB 20 μM for 2 h prior to LPA 25 μM, 24 h; FIG. 9
Experimental: The cells were serum starved with DMEM medium supplemented with 1% BSA and 1% penicillin/streptomycin for 24 h. Cells were either untreated (C) or pre-treated with BIP (10 or 20 μM) or SB (20 μM) for 2 h prior the stimulation with lysophosphatidic acid (LPA, 25 μM). After 24 h the cells were lysed, protein extracted and separated by SDS-PAGE and analyzed by western blotting. The data are shown in FIG. 9; Panel A is a representative western blot, while Panel B provides the data. The bands were quantified by densitometry, and CTGF expression was related to actin expression to correct for loading differences. CTGF expression in untreated cells (C) was set to 1 for comparison of different blots. Data expressed as mean ±standard deviation of 3 experiments. *: p<0.05 compared to the cells stimulated with LPA.

[12] = test system: rat aortic smooth muscle (A7R5) cells; assay: Scratch migration of A7R5 cells stimulated with LPA or TGF; format: cell-based; settings: BIP 10 μM for 2 h prior to LPA 25 μM or TGF 2.5 ng/mL; FIG. 10
Experimental: A7R5 cells were serum starved with DMEM medium supplemented with 1% BSA and 1% penicillin/streptomycin for 24 h. A scratch made in the dishes using the tip of a pipette, and the cells were rinsed 3 times with PBS. Cells were untreated (C) or pre-treated with BIP (10 μM) for 2 h prior the stimulation with lysophosphatidic acid (LPA, 25 μM) or TGF (2.5 ng/mL). *: p<0.05 compared to the cells stimulated with LPA or TGF.

[13] = 10 μM BIP for 2 h followed by TGFβ1 1.25 ng/ml for 24 h
[14] = 60 μM BIP for 2 h followed by TGF-β1 1.25 ng/ml for 24 h, normalized to GAPDH, FIG. 3

MAPKAPKII, sequence (P49137 whole entry): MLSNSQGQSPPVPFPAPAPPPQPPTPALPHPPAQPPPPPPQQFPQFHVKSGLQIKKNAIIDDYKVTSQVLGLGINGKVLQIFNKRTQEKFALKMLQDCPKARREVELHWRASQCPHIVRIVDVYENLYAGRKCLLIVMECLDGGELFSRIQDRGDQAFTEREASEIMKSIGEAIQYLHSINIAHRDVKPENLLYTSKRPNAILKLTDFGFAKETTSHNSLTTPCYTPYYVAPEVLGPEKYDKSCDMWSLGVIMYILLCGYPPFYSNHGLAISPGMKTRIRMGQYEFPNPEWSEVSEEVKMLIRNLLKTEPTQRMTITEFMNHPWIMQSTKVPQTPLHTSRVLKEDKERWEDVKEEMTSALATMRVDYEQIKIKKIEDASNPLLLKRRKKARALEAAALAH

Row | Compound | MAPKAPKII induced phosphorylation of HSP27 in vitro [1] | TGFβ1 induced expression of CTGF [2, 13] | TGFβ1 induced expression of collagen [2, 13] | TGF-β1 induced expression of CTGF [2, 14] | TGF-β1 induced expression of collagen [2, 14] | central actin [3] | stress fiber formation [3] | TGF-β1 induced phosphorylation of HSP27 (ser 78/82), fluorescence microscopy [4] | phosphorylation of HSP27 (phospho-HSP27 as ratio to endogenous HSP27) ([5]; 10 μM BIP for 2 h followed by TGFβ1 for 24 h, FIG. 2) | TGF-β1 induced phosphorylation of HSP27, immunoblot ([5]; 10 μM BIP for 24 h, TGF-β1-stimulated cells, relative to β-actin, normalized to untreated) | TGF-β1 induced phosphorylation of HSP27 (ratio P-P27 to P27), immunoblot ([5]; 60 μM BIP for 2 h followed by TGFβ-1 […] for 24 h, n=3, FIG. 4) | sodium nitroprusside induced relaxation of saphenous vein [6] | EC proliferation [7] | thickening of the intimal layer in saphenous vein [8] | CTGF expression in saphenous vein [9] | phosphorylation of HSP27 in saphenous vein [9] | phosphorylation of HSP27 (relative p-HSP27/HSP27) [10] | LPA induced CTGF expression [11] | migration of cells [12]
1 | WLRRIKAWLRRIKALNRQLGVAA [BIP] | inhibits | inhibits | inhibits | inhibits | inhibits | loss of central actin | reduced stress fiber formation | reduced | reduces | inhibits | effectively inhibited | significant increases | Does Not Inhibit | inhibits | inhibits | inhibits | inhibits | inhibits | inhibits
2 | C[S+]([O-])c1ccc(-c2nc(-c3ccncc3)c(-c3ccc(F)cc3)[nH]2)cc1 (stereo not shown) [SB, SB 203580, reference compound] | – | – | – | – | – | – | – | – | – | – | – | significant increases | – | Inhibits | Inhibits | Inhibits | Inhibits | Inhibits | –
